Structures can show the parent of a compound that is named as a salt.

Results on 22 compounds are retold here after patent US20030236229A1 (priority 1996, published 2003).

The target of one assay is T1, lysosomal mannosidase (Homo sapiens, UniProt O00754).
T1 sequence (O00754 50-1011): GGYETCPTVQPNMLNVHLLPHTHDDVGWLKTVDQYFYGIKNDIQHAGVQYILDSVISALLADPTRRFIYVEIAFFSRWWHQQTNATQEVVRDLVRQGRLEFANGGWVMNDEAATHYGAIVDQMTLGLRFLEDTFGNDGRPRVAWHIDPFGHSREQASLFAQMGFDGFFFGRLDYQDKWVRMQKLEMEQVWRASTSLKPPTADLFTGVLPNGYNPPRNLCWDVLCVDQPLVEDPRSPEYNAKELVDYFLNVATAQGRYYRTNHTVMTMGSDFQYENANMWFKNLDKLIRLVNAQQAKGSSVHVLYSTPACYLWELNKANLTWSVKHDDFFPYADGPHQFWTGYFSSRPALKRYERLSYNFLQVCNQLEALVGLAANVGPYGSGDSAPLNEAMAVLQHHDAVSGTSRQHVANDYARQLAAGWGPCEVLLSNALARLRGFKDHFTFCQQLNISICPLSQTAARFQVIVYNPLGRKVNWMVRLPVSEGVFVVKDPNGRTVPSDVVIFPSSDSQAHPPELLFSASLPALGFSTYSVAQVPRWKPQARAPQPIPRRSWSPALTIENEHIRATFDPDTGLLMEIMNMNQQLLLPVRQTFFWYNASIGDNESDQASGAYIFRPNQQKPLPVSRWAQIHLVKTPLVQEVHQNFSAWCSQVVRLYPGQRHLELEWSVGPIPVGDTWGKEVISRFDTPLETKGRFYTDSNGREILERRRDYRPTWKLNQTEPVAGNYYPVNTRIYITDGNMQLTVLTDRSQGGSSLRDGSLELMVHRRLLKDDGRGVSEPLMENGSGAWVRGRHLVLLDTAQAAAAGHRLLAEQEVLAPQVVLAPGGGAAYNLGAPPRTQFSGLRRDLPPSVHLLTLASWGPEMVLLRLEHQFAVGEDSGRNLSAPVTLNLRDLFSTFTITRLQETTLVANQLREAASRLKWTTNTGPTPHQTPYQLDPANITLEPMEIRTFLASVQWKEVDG
Nature of the assay: biochemical. The note with it: Lysosomal Mannosidase Activity (μM). How it is done: (§1) 15 μl of α-mannosidase (Sigma 38 U/ml) was added to each well and the plates were incubated for 60 min at 37° C. The reaction was stopped by the addition of 50 μl of 0.5M sodium carbonate and formation of p-nitrophenol was measured with a plate set at […]. […] The reaction was stopped by the addition of 50 μl of 0.5M sodium carbonate and formation of p nitrophenol was measured with a plate set at 405.
Consider `O[C@H]1[C@H]2[C@H](O)CCCN2C[C@H]1O` [Swainsonine, reference compound], for which the IC50 is 0.08 ± 0.079 µM.

Staying with this assay, now noted: sodium acetate pH 5.0, 60 min at 37° C., p-nitrophenol read at 405.
On to `OC1=C(O)N2CCC[C@@H](O)[C@H]2[C@@H]1O` [(1S,8R,8aS)-1,5,6,7,8,8a-Hexahydro-1,2,3,8-indolizinetetraol], for which the “Lysosomal Mannosidase Activity (μM)” value was “No detectable inhibition”.

The same assay, now with this note: sodium acetate pH 5.0, 60 min at 37° C., p-nitrophenol read at 405; read-out: Lysosomal Mannosidase Activity.
Regarding `CC1CCC(O)C2C(O)C(O)CN12` (single isomer, unassigned) [GD37], the IC50 amounted to 28.2 ± 7.85 µM.

For the compound `CC[C@H]1CC[C@@H](O)[C@@H]2[C@H](O)[C@H](O)CN12` [GD 38, (5S)-5-Ethylswainsonine], the IC50 was 0.36 ± 0.313 µM.

As to `CCOC(=O)C1CC(O)C2C(O)C(O)CN2C1C` [GD84, ethyl (5R,6R)-5-methylswainsonine-6-carboxylate], the IC50 was 1500 ± 707 µM.

`CC1CCC(O)C2C(O)C(O)CN12` [GD19, (5R)-5-Methylswainsonine formate salt]: the IC50 was 1.45 ± 0.071 µM.

Regarding `N#CC1C(O)[C@@H](O)C2[C@H](O)CCCN12` (stereo in doubt) [GD 92, (1S, 2S, 3R/S, 8R, 8aS)-3-cyano-1,2,8-Trihydroxyoctahydroindolizine], the IC50 was 30.1 ± 1.2 µM.

Consider `C[C@H]1[C@@H](CO)C[C@@H](O)[C@@H]2[C@H](O)[C@H](O)CN21` [GD40, (5S,6S)-6-Hydroxymethyl-5-methylswainsonine], for which the IC50 was 62.4 ± 17.9 µM.

Turning to `OC1CN2C(COCc3ccccc3)CCC(O)C2C1O` (single isomer, unassigned) [GD42], the IC50 amounted to 0.164 ± 0.0491 µM.

With `CC1CCC(O)C2C(O)C(O)CN12` (single isomer, unassigned) [GD 28], the IC50 amounted to 0.316 ± 0.0759 µM.

Regarding `OC1CN2C(COCc3ccccc3)CCC(O)C2C1O` (single isomer, unassigned) [GD 91], the IC50 was 3.23 ± 0.268 µM.

As for `OC[C@@H]1CC[C@@H](O)[C@@H]2[C@H](O)[C@H](O)CN12` [GD 46, (5S)-5-(Hydroxymethyl)swainsonine], the IC50 was 1.48 ± 0.455 µM.

For `CC1CCC(O)C2C(O)C(O)CN12` (single isomer, unassigned) [GD 20], the IC50 was determined as 2.3 ± 1.13 µM.

With `OCC1C(O)C(O)C2C(O)CCCN12` (stereo not shown) [EJH-4-263, 3-hydroxymethyl-swainsonine], the IC50 was 39.1 ± 16.3 µM.

On to `C[C@@H]1[C@H](CO)C[C@@H](O)[C@@H]2[C@H](O)[C@H](O)CN21` [GD44, (5R,6R)-6-Hydroxymethyl-5-methylswainsonine], for which the IC50 was 24.5 ± 7.62 µM.

On to `OC[C@H]1CC[C@@H](O)[C@@H]2[C@H](O)[C@H](O)CN12` [GD45, (5R)-5-(Hydroxymethyl)swainsonine], for which the IC50 is 0.705 ± 0.309 µM.

For `O=C1[C@H](O)[C@@H](O)[C@@H]2[C@H](O)CCCN12` [GD 35, (1S,2R,8R,8aS)-1,2,8-Trihydroxyhexahydo-3(2II)-indolizinone], the IC50 came out at 1090 µM.

For `OCC1C(O)C(O)C2C(O)CCCN12` (stereo not shown) [EJH-4-264, 3-hydroxymethyl-swainsonine], the IC50 is 1.7 ± 0.5 µM.

Turning to `CCOC(=O)[C@H]1C[C@H](O)[C@@H]2[C@@H](O)[C@H](O)CN2[C@H]1C` [GD 36, ethyl (1R,2R,5S,6S,8S,8aR)-1,2,8-trihydroxy-5-methyloctahydro-6-indolizinecarboxylate], the IC50 amounted to 120 ± 32.2 µM.

The target of another assay is T2, Golgi α-mannosidase II (Canavalia ensiformis, UniProt C0HJB3).
T2 sequence (C0HJB3 1-981): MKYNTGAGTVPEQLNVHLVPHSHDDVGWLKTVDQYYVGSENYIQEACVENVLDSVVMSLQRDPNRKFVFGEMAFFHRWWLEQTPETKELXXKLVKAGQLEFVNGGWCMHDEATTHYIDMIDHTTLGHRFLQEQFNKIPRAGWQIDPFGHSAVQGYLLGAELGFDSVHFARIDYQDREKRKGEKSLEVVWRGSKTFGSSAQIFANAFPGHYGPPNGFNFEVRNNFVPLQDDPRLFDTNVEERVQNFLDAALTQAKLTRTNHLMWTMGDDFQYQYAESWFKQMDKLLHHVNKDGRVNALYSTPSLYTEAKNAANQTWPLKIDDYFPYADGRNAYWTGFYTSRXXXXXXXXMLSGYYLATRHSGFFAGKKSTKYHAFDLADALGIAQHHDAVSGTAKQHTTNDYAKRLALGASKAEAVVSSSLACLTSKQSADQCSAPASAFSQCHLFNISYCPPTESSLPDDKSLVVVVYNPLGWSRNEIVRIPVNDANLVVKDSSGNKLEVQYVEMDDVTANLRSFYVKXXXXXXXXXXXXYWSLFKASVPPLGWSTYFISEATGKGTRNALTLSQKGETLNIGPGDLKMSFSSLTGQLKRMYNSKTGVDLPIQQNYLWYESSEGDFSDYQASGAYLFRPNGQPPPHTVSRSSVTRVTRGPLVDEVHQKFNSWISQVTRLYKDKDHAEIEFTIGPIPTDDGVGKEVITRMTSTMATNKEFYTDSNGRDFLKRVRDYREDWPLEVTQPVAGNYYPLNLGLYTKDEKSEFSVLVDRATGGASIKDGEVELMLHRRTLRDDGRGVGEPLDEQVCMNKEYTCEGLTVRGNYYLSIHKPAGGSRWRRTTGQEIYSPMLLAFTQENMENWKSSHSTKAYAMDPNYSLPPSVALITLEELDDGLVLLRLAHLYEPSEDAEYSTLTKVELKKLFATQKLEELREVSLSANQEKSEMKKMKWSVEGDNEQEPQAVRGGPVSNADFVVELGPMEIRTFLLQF
Assay: not given
The assay is classed as biochemical. The note with it: sodium acetate pH 5.6, 60 min at 37° C., p-nitrophenol read at 405. As for the experimental part: as §1
For `OC1=C(O)N2CCC[C@@H](O)[C@H]2[C@@H]1O` [(1S,8R,8aS)-1,5,6,7,8,8a-Hexahydro-1,2,3,8-indolizinetetraol], the “MannoaidaseII Activity (μM)” value was “No detectable”.

The same assay, now with this note: sodium acetate pH 5.6, 60 min at 37° C., p-nitrophenol read at 405; read-out: MannoaidaseII Activity.
For the compound `OCC1C(O)C(O)C2C(O)CCCN12` (stereo not shown) [EJH-4-263, 3-hydroxymethyl-swainsonine], the IC50 worked out at 1.83 ± 1.3 µM.

In the case of `O=C1[C@H](O)[C@@H](O)[C@@H]2[C@H](O)CCCN12` [GD 35, (1S,2R,8R,8aS)-1,2,8-Trihydroxyhexahydo-3(2II)-indolizinone], the IC50 is 1030 µM.

Another assay relates to MDAY-D2 tumor cells.
Assay: not given
As to conditions: viable MDAY-D2 tumor cells; cited from earlier work.
As to `CCCC(=O)OC1CN2CCCC(O)C2C1O` (stereo not shown) [2-butanoyloxy], the “activity as inhibitors of Golgi oligosaccharide processing” value (“activity as inhibitors” for short) was “retained full activity”.

With `CCCCCCCC(=O)OC1CN2CCCC(O)C2C1O` (stereo not shown) [2-octanoyloxy], the “activity as inhibitors” value is “retained full activity”.

In the case of `O=C(OC1CN2CCCC(O)C2C1O)c1ccc([N+](=O)[O-])cc1` (stereo not shown) [2-p-nitrobenzoyloxy], the “activity as inhibitors” value is listed as “retained full activity”.
